In patent US20260053932A1, “COMPOUNDS AND METHODS FOR THE TARGETED DEGRADATION OF ANDROGEN RECEPTOR AND ASSOCIATED METHODS OF USE” (Arvinas Operations, Inc., priority 2020, published 2026):

test system: androgen receptor (AR) in LNCaP and/or VCaP cells; assay: Androgen Receptor ELISA assay (AR degradation); type: cell-based; details: LNCaP and/or VCaP cells; 5 hours incubation; media with R1881; read-out: DC50 Code* (degradation of AR ELISA)
Outline: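 VCaP cells grown ≥3 days, then treated 5 h with compound in media containing 1 nM R1881 (10× stock). Cells lysed and AR quantified by sandwich ELISA (mouse AR detection Ab, HRP anti-mouse, TMB). DC50 and Dmax derived from AR degradation.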

SMILES | DC50 [nM]
N#Cc1ccc(O[C@H]2CC[C@H](NC(=O)c3cnc(N4CCC(CN(CC5COC5)[C@H]5C[C@H](Oc6ccc7c(c6)CN(C6CCC(=O)NC6=O)C7=O)C5)CC4)cn3)CC2)cc1Cl (some centres unmarked) [Compound 13, N-((1r,4r)-4-(3-chloro-4-cyanophenoxy)cyclohexyl)-5-(4-((((1r,3r)-3-((2-(2,6-dioxopiperidin-3-yl)-1-oxoisoindolin-5-yl)oxy)cyclobutyl) (oxetan-3-ylmethyl)amino)methyl)piperidin-1-yl)pyrazine-2-carboxamide] | < 1
COc1cc(O[C@H]2CC[C@@H](NC(=O)c3cnc(N4CCC(CN(C(C)C)[C@H]5C[C@H](Oc6ccc7c(c6)C(=O)N(C6CCC(=O)NC6=O)C7=O)C5)CC4)cn3)C2)ccc1C#N (stereo partly drawn) [Compound 6, N-((1R,3S)-3-(4-cyano-3-methoxyphenoxy)cyclopentyl)-5-(4-((((1r,3R)-3-((2-(2,6-dioxopiperidin-3-yl)-1,3-dioxoisoindolin-5-yl)oxy)cyclobutyl) (isopropyl)amino)methyl)piperidin-1-yl)pyrazine-2-carboxamide] | > 100

same assay, conditions: degradation of AR ELISA in LNCaP and/or VCaP cells; Table 2C; read-out: DC50 Code*

SMILES | DC50 [nM]
COCCN(CC1CCN(c2cnc(C(=O)N[C@H]3C(C)(C)[C@H](Oc4cc(C)c(C#N)c(C)c4)C3(C)C)cn2)CC1)[C@H]1C[C@H](Oc2cc3c(cc2OC)C(=O)N(C2CCC(=O)NC2=O)C3=O)C1 (mixture of isomers) [compound 222, rac-N-((1r,3r)-3-(4-cyano-3,5-dimethylphenoxy)-2,2,4,4-tetramethylcyclobutyl)-5-(4-((((1r,3r)-3-((2-(2,6-dioxopiperidin-3-yl)-6-methoxy-1,3-dioxoisoindolin-5-yl)oxy)cyclobutyl)(2-methoxyethyl)amino)methyl)piperidin-1-yl)pyrazine-2-carboxamide] | < 1
CC1(C)[C@H](NC(=O)c2ccc(N3CCC(CN4CCN(c5ccc6c(c5)C(=O)N(C5CCC(=O)N(O)C5=O)C6=O)CC4)CC3)cc2)C(C)(C)[C@H]1Oc1ccc(C#N)c(Cl)c1 (some centres unmarked) [compound 142, N-((1r,3r)-3-(3-chloro-4-cyanophenoxy)-2,2,4,4-tetramethylcyclobutyl)-4-(4-((4-(2-(1-hydroxy-2,6-dioxopiperidin-3-yl)-1,3-dioxoisoindolin-5-yl)piperazin-1-yl)methyl)piperidin-1-yl)benzamide] | > 100
CCOc1cc(O[C@H]2C[C@H](N(CC3CCN(c4cnc(C(=O)N[C@H]5C(C)(C)[C@H](Oc6cc(C)c(C#N)c(C)c6)C5(C)C)cn4)CC3)C(C)C)C2)cc2c1C(=O)N(C1CCC(=O)NC1=O)C2=O (mixture of isomers) [compound 238, rac-N-((1r,3r)-3-(4-cyano-3,5-dimethylphenoxy)-2,2,4,4-tetramethylcyclobutyl)-5-(4-((((1r,3r)-3-((2-(2,6-dioxopiperidin-3-yl)-7-ethoxy-1,3-dioxoisoindolin-5-yl)oxy)cyclobutyl) (isopropyl)amino)methyl)piperidin-1-yl)pyrazine-2-carboxamide] | 1 to 10
Cc1cc(O[C@H]2C(C)(C)[C@H](NC(=O)c3cnc(N4CCC(CN(C)[C@H]5C[C@H](Oc6ccc7c(c6)C(=O)N(C6CCC(=O)NC6=O)C7=O)C5)CC4)cn3)C2(C)C)cc(C)c1C#N (mixture of isomers) [compound 224, rac-N-((1r,3r)-3-(4-cyano-3,5-dimethylphenoxy)-2,2,4,4-tetramethylcyclobutyl)-5-(4-((((1r,3r)-3-((2-(2,6-dioxopiperidin-3-yl)-1,3-dioxoisoindolin-5-yl)oxy)cyclobutyl) (methyl)amino)methyl)piperidin-1-yl)pyrazine-2-carboxamide] | < 1
CCN(CC1CCN(c2cnc(C(=O)N[C@H]3C(C)(C)[C@H](Oc4cc(C)c(C#N)c(C)c4)C3(C)C)cn2)CC1)[C@H]1C[C@H](Oc2ccc3c(c2)C(=O)N(C2CCC(=O)NC2=O)C3=O)C1 (some centres unmarked) [compound 206, N-((1r,3r)-3-(4-cyano-3,5-dimethylphenoxy)-2,2,4,4-tetramethylcyclobutyl)-5-(4-((((1r,3r)-3-((2-(2,6-dioxopiperidin-3-yl)-1,3-dioxoisoindolin-5-yl)oxy)cyclobutyl) (ethyl)amino)methyl)piperidin-1-yl)pyrazine-2-carboxamide] | < 1
COc1cc(O[C@H]2C(C)(C)[C@H](NC(=O)c3cnc(N4CC5(CC(CN(C(C)C)[C@H]6C[C@H](Oc7ccc8c(c7)C(=O)N(C7CCC(=O)NC7=O)C8=O)C6)C5)C4)cn3)C2(C)C)ccc1C#N (some centres unmarked) [compound 122, N-((1r,3r)-3-(4-cyano-3-methoxyphenoxy)-2,2,4,4-tetramethylcyclobutyl)-5-(6-((((1r,3r)-3-((2-(2,6-dioxopiperidin-3-yl)-1,3-dioxoisoindolin-5-yl)oxy)cyclobutyl) (isopropyl)amino)methyl)-2-azaspiro[3.3]heptan-2-yl)pyrazine-2-carboxamide] | < 1
CC1(C)[C@H](NC(=O)c2ccc(N3CCN([C@H]4CC[C@H](Oc5ccc6c(c5)C(=O)N(C5CCC(=O)NC5=O)C6=O)C4)CC3)cc2)C(C)(C)[C@H]1Oc1ccc(C#N)c(Cl)c1 (stereo partly drawn) [compound 125, N-((1r,3S)-3-(3-chloro-4-cyanophenoxy)-2,2,4,4-tetramethylcyclobutyl)-4-(4-((1S,3S)-3-((2-(2,6-dioxopiperidin-3-yl)-1,3-dioxoisoindolin-5-yl)oxy)cyclopentyl)piperazin-1-yl)benzamide] | < 1
COc1cc(O[C@H]2C[C@H](N(CC3CCN(c4cnc(C(=O)N[C@H]5C(C)(C)[C@H](Oc6ccc(C#N)c(Cl)c6)C5(C)C)cn4)CC3)C(C)C)C2)cc2c1CN(C1CCC(=O)NC1=O)C2=O (mixture of isomers) [compound 226, rac-N-((1r,3r)-3-(3-chloro-4-cyanophenoxy)-2,2,4,4-tetramethylcyclobutyl)-5-(4-((((1r,3r)-3-((2-(2,6-dioxopiperidin-3-yl)-7-methoxy-3-oxoisoindolin-5-yl)oxy)cyclobutyl) (isopropyl)amino)methyl)piperidin-1-yl)pyrazine-2-carboxamide] | < 1
COCCN(CC1CCN(c2cnc(C(=O)N[C@H]3C(C)(C)[C@H](Oc4cc(C)c(C#N)c(C)c4)C3(C)C)cn2)CC1)[C@H]1C[C@H](Oc2ccc3c(c2)C(=O)N(C2CCC(=O)NC2=O)C3=O)C1 (some centres unmarked) [compound 119, N-((1r,3r)-3-(4-cyano-3,5-dimethylphenoxy)-2,2,4,4-tetramethylcyclobutyl)-5-(4-((((1r,3r)-3-((2-(2,6-dioxopiperidin-3-yl)-1,3-dioxoisoindolin-5-yl)oxy)cyclobutyl)(2-methoxyethyl)amino)methyl)piperidin-1-yl)pyrazine-2-carboxamide] | < 1
CC1(C)[C@H](NC(=O)c2ccc(N3CCC(CN4CC5CN(c6ccc7c(c6)C(=O)N(C6CCC(=O)NC6=O)C7=O)CC5C4)CC3)cc2)C(C)(C)[C@H]1Oc1ccc(C#N)c(Cl)c1 (some centres unmarked) [compound 114, N-((1r,3r)-3-(3-chloro-4-cyanophenoxy)-2,2,4,4-tetramethylcyclobutyl)-4-(4-((5-(2-(2,6-dioxopiperidin-3-yl)-1,3-dioxoisoindolin-5-yl)hexahydropyrrolo[3,4-c]pyrrol-2(1H)-yl)methyl)piperidin-1-yl)benzamide] | < 1
COc1cc(O[C@H]2C[C@H](N(CC3CC4(C3)CN(c3cnc(C(=O)N[C@H]5C(C)(C)[C@H](Oc6cc(C)c(C#N)c(C)c6)C5(C)C)cn3)C4)C(C)C)C2)cc2c1C(=O)N(C1CCC(=O)NC1=O)C2=O (some centres unmarked) [compound 158, N-((1r,3r)-3-(4-cyano-3,5-dimethylphenoxy)-2,2,4,4-tetramethylcyclobutyl)-5-(6-((((1r,3r)-3-((2-(2,6-dioxopiperidin-3-yl)-7-methoxy-1,3-dioxoisoindolin-5-yl)oxy)cyclobutyl) (isopropyl)amino)methyl)-2-azaspiro[3.3]heptan-2-yl)pyrazine-2-carboxamide] | < 1
Cc1cc(O[C@H]2C(C)(C)[C@H](NC(=O)c3cnc(N4CCC(CN(CC(F)F)[C@H]5C[C@H](Oc6ccc7c(c6)CN(C6CCC(=O)NC6=O)C7=O)C5)CC4)nc3)C2(C)C)cc(C)c1C#N (some centres unmarked) [compound 97, N-((1r,3r)-3-(4-cyano-3,5-dimethylphenoxy)-2,2,4,4-tetramethylcyclobutyl)-2-(4-(((2,2-difluoroethyl)((1r,3r)-3-((2-(2,6-dioxopiperidin-3-yl)-1-oxoisoindolin-5-yl)oxy)cyclobutyl)amino)methyl)piperidin-1-yl)pyrimidine-5-carboxamide] | < 1
CCN(CC1CCN(c2cnc(C(=O)N[C@H]3C(C)(C)[C@H](Oc4ccc(C#N)c(OC)c4)C3(C)C)cn2)CC1)[C@H]1C[C@H](Oc2ccc3c(c2)C(=O)N(C2CCC(=O)NC2=O)C3=O)C1 (some centres unmarked) [compound 194, N-((1r,3r)-3-(4-cyano-3-methoxyphenoxy)-2,2,4,4-tetramethylcyclobutyl)-5-(4-((((1r,3r)-3-((2-(2,6-dioxopiperidin-3-yl)-1,3-dioxoisoindolin-5-yl)oxy)cyclobutyl)(ethyl)amino)methyl)piperidin-1-yl)pyrazine-2-carboxamide] | < 1
Cc1cc(O[C@H]2C(C)(C)[C@H](NC(=O)c3cnc(N4CC5(CC(CN(C(C)C)[C@H]6C[C@H](Oc7ccc8c(c7)C(=O)N(C7CCC(=O)NC7=O)C8=O)C6)C5)C4)cn3)C2(C)C)cc(C)c1C#N (some centres unmarked) [compound 175, N-((1r,3r)-3-(4-cyano-3,5-dimethylphenoxy)-2,2,4,4-tetramethylcyclobutyl)-5-(6-((((1r,3r)-3-((2-(2,6-dioxopiperidin-3-yl)-1,3-dioxoisoindolin-5-yl)oxy)cyclobutyl) (isopropyl)amino)methyl)-2-azaspiro[3.3]heptan-2-yl)pyrazine-2-carboxamide] | < 1
Cc1cc(O[C@H]2C(C)(C)[C@H](NC(=O)c3ccc(N4CCC(CN(C)[C@@H]5CC[C@@H](Oc6ccc7c(c6)C(=O)N(C6CCC(=O)NC6=O)C7=O)C5)CC4)cc3)C2(C)C)cc(C)c1C#N (stereo partly drawn) [compound 161, N-((1r,3R)-3-(4-cyano-3,5-dimethylphenoxy)-2,2,4,4-tetramethylcyclobutyl)-4-(4-((((1R,3R)-3-((2-(2,6-dioxopiperidin-3-yl)-1,3-dioxoisoindolin-5-yl)oxy)cyclopentyl) (methyl)amino)methyl)piperidin-1-yl)benzamide] | < 1
